Measurements taken from US20250011881A1, “MYC-HSF1 DUAL AMPLIFICATION AS A BIOMARKER FOR CANCER TREATMENT” (The Trustees of Indiana University, priority 2023, published 2025).
Where a name gives a salt, the structure may show the parent alone.

The compounds below were run on ovarian cancer cells with (OVCAR8, OVCAR4) or without (OVSAHO, CAOV3) MYC-HSF1 amplification (assay: Epigenetic inhibitor drug screen, cell viability (Cell Titer Blue)). Details: not given.
Format: cell-based
“(−)-Epigallocatechin gallate [(−)-Epigallocatechin gallate (EGCG)]” was tested, and the “Non Amp - AMP (POC) 10 uM” value was 4.98 POC. With Ginkgolide C the “Non Amp - AMP (POC) 10 uM” value was −1.319 POC. In the case of Oxamflatin, the “Non Amp - AMP (POC) 10 uM” value is reported as 24.33 POC. For Sodium Phenylbutyrate, the “Non Amp - AMP (POC) 10 uM” value was −19.07 POC.

Same assay, conditions: 10 µM
For `COc1cc2c(NC3CCN(C(C)C)CC3)nc(N3CCC(F)(F)CC3)nc2cc1OCCCN1CCCC1` [UNC 0642], the “Non Amp - AMP (POC) 10 uM” value was 6.253 POC.

Same assay, conditions: 10 uM, 48 hrs; average relative cell viability (vs 1% DMSO) of non-amplified cells (OVSAHO, CAOV3) minus that of MYC-HSF1 amplified cells (OVCAR8, OVCAR4); positive = greater response in amplified cells
In the case of `Cc1cnc(Nc2ccc(OCCN3CCCC3)cc2)nc1Nc1cccc(S(=O)(=O)NC(C)(C)C)c1` [TG101348 (SAR302503)], the “Non Amp - AMP (POC) 10 uM” value is reported as −1.346 POC. In the case of `O=C(NCC1(c2nc(-c3ccccc3)cs2)CCOCC1)c1cccc(-c2noc(C(F)(F)F)n2)c1` [TMP269], the “Non Amp - AMP (POC) 10 uM” value is reported as 16.29 POC. `CC(C)(CNC(=O)c1cccc(-c2noc(C(F)(F)F)n2)c1)c1coc(-c2ccccc2)n1` [TMP-195] was tested, and the “Non Amp - AMP (POC) 10 uM” value was 0.5425 POC. In the case of `N#Cc1ccc(OC2CCC(NC(=O)CCSc3nc4ccccc4c(=O)[nH]3)CC2)cc1` (centres unmarked) [Tankyrase Inhibitors (TNKS) 49], the “Non Amp - AMP (POC) 10 uM” value is reported as −7.406 POC. For `CN(C)CCCCC(=O)Nc1ccc(NC(=S)NC(=O)c2ccc(C(C)(C)C)cc2)cc1.Cl` [Tenovin-6 (hydrochloride), Tenovin-6], the “Non Amp - AMP (POC) 10 uM” value was −3.503 POC. For `CN(C)CCCCC(=O)Nc1ccc(NC(=S)NC(=O)c2ccc(C(C)(C)C)cc2)cc1` [Tenovin-6], the “Non Amp - AMP (POC) 10 uM” value was 0.07933 POC. In the case of `CCCCCCCCCCCCCC(=S)NCCCC[C@H](NC(=O)OCc1ccccc1)C(=O)Nc1ccccc1` [Thiomyristoyl], the “Non Amp - AMP (POC) 10 uM” value is reported as −0.8381 POC. `CCOC(=O)NNc1nncc2ccccc12` [Todralazine (hydrochloride), Todralazine] was tested, and the “Non Amp - AMP (POC) 10 uM” value was 13.07 POC. With `O=C(CCCCCCC(=O)Nc1ccc([C@H]2O[C@@H](CSc3nc(-c4ccccc4)c(-c4ccccc4)o3)C[C@@H](c3ccc(CO)cc3)O2)cc1)NO` [Tubacin] the “Non Amp - AMP (POC) 10 uM” value was −15.59 POC. For `CN1CCc2c(c3ccccc3n2Cc2ccc(C(=O)NO)cc2)C1.Cl` [Tubastatin A HCl], the “Non Amp - AMP (POC) 10 uM” value was 19.35 POC. For `CN1CCc2c(c3ccccc3n2Cc2ccc(C(=O)NO)cc2)C1` [Tubastatin A], the “Non Amp - AMP (POC) 10 uM” value was 15.75 POC. For `Cc1noc(C)c1-c1ccc(-c2nc3cnccn3c2NC(C)(C)C)cc1` [UMB-32], the “Non Amp - AMP (POC) 10 uM” value was −3.692 POC. `COc1cc2c(NC3CCN(C)CC3)nc(N3CCCN(C)CC3)nc2cc1OCCOCCN(C)C` [UNC0321 (trifluoroacetate salt)] was tested, and the “Non Amp - AMP (POC) 10 uM” value was 0.4275 POC. With `COc1cc2nc(N3CCCC3)nc(NCCCCCN3CCCC3)c2cc1OC` [UNC0379] the “Non Amp - AMP (POC) 10 uM” value was 21.92 POC. With `COc1cc2c(NC3CCN(C(C)C)CC3)nc(C3CCCCC3)nc2cc1OCCCN1CCCC1` [UNC0638] the “Non Amp - AMP (POC) 10 uM” value was −12.13 POC. `COc1cc2c(NC3CCN(CC4CCCCC4)CC3)nc(N3CCCN(C(C)C)CC3)nc2cc1OCCCN1CCCCC1` [UNC 0631] was tested, and the “Non Amp - AMP (POC) 10 uM” value was 34.73 POC. In the case of `COc1cc2c(NC3CCN(C4CCCCC4)CC3)nc(N3CCCN(C(C)C)CC3)nc2cc1OCCCN1CCCCC1` [UNC 0646], the “Non Amp - AMP (POC) 10 uM” value is reported as 45.25 POC. In the case of `O=C(COc1cccc2c(=O)[nH]ccc12)c1ccccc1` [UPF 1069], the “Non Amp - AMP (POC) 10 uM” value is reported as −6.052 POC. `Cc1cc(Nc2cc(N3CCN(C)CC3)nc(Sc3ccc(NC(=O)C4CC4)cc3)n2)[nH]n1` [VX-680 (MK-0457, Tozasertib), Tozasertib] was tested, and the “Non Amp - AMP (POC) 10 uM” value was −20.25 POC. In the case of `CCCC(CCC)C(=O)[O-].[Na+]` [Valproic acid sodium salt], the “Non Amp - AMP (POC) 10 uM” value is reported as −19.36 POC. In the case of `COC(=O)c1ccc(N2CCN(C)CC2)c(NC(=O)c2cccc(OC)c2)c1` [WDR5 0103], the “Non Amp - AMP (POC) 10 uM” value is reported as 1.921 POC. For `COc1cc2ncnc(Nc3ccc(O)c(Br)c3)c2cc1OC` [WHI-P154], the “Non Amp - AMP (POC) 10 uM” value was −1.78 POC. `COc1ccc(-n2c(SCCCN3C(=O)c4cccc5cccc(c45)C3=O)nnc2-c2ccncc2)cc1` [WIKI4] was tested, and the “Non Amp - AMP (POC) 10 uM” value was 10.07 POC. In the case of `C[C@H](NC(=O)/C(C#N)=C/c1cccc(Br)n1)c1ccccc1` [WP1066], the “Non Amp - AMP (POC) 10 uM” value is reported as 3.079 POC. For `CCC(=O)Nc1cccc(Oc2nc(Nc3ccc(N4CCN(C)CC4)cc3OC)ncc2Cl)c1` [WZ4003], the “Non Amp - AMP (POC) 10 uM” value was −24.51 POC. `Oc1nc(-c2ccc(C(F)(F)F)cc2)nc2c1CSCC2` [XAV-939] was tested, and the “Non Amp - AMP (POC) 10 uM” value was −6.034 POC. `O=C(Nc1ccc(-c2ccnc(Nc3ccc(N4CCOCC4)cc3)n2)cc1)C1CCCN1` (centres unmarked) [XL019] was tested, and the “Non Amp - AMP (POC) 10 uM” value was −14.18 POC. `CC(C)c1cc(CNc2nc(Nc3cc(C4CC4)[nH]n3)cc(N3CCN(C)CC3)n2)on1` [XL228] was tested, and the “Non Amp - AMP (POC) 10 uM” value was 17.3 POC. With `CC(C)N(CCC(=O)c1ccc2ccccc2c1)Cc1ccccc1` [ZM 39923 HCl] the “Non Amp - AMP (POC) 10 uM” value was −4.611 POC. With `COc1cc2c(Nc3ccc(NC(=O)c4ccccc4)cc3)ncnc2cc1OCCCN1CCOCC1` [ZM 447439] the “Non Amp - AMP (POC) 10 uM” value was 0.5089 POC. With `C=CC(=O)c1ccc2ccccc2c1` [ZM 449829] the “Non Amp - AMP (POC) 10 uM” value was 4.711 POC. `O=C([O-])CCC(O)C(=O)[O-].[Na+].[Na+]` (centres unmarked) [a-hydroxyglutaric Acid (sodium salt), a-hydroxyglutaric Acid] was tested, and the “Non Amp - AMP (POC) 10 uM” value was 3.785 POC. In the case of `O=P(O)(O)OC(CO)CO` [β-Glycerophosphate (sodium salt hydrate), β-Glycerophosphate], the “Non Amp - AMP (POC) 10 uM” value is reported as 2.069 POC. In the case of AZD1152, the “Non Amp - AMP (POC) 10 uM” value is reported as −6.485 POC. CPI-455 was tested, and the “Non Amp - AMP (POC) 10 uM” value was −8.682 POC. In the case of Inauhzin, the “Non Amp - AMP (POC) 10 uM” value is reported as −0.3441 POC. With SNS-314 Mesylate the “Non Amp - AMP (POC) 10 uM” value was 1.355 POC.

Same assay, conditions: 10 uM, 48 hrs; average relative cell viability (vs 1% DMSO) of non-amplified cells (OVSAHO, CAOV3) minus that of MYC-HSF1 amplified cells (OVCAR8, OVCAR4); positive = greater response in amplified cells; 10 µM
In the case of `Nc1nc2nc[nH]c2c(=S)[nH]1` [Thioguanine], the “Non Amp - AMP (POC) 10 uM” value is reported as 9.104 POC. `C[C@@H]1CCN(C(=O)CC#N)C[C@@H]1N(C)c1ncnc2[nH]ccc12` [Tofacitinib (CP-690550) Citrate, Tofacitinib] was tested, and the “Non Amp - AMP (POC) 10 uM” value was 3.666 POC. With `C[C@@H]1CCN(C(=O)CC#N)C[C@@H]1N(C)c1ncnc2[nH]ccc12` [Tofacitinib (CP-690550, Tasocitinib), Tofacitinib] the “Non Amp - AMP (POC) 10 uM” value was −2.781 POC. `CC(/C=C/C(=O)NO)=C\[C@@H](C)C(=O)c1ccc(N(C)C)cc1` [Trichostatin A] was tested, and the “Non Amp - AMP (POC) 10 uM” value was 47.34 POC. For `CCCCNNC(=O)c1ccc(Br)cc1` [UF010], the “Non Amp - AMP (POC) 10 uM” value was 54.18 POC. `COc1cc2c(NC3CCN(C)CC3)nc(N3CCCN(C)CC3)nc2cc1OCCCN(C)C` [UNC0224] was tested, and the “Non Amp - AMP (POC) 10 uM” value was 7.132 POC. For `CCCC(CCC)C(=O)O` [Valproic acid], the “Non Amp - AMP (POC) 10 uM” value was −3.268 POC. For `O=C(CCCCCCC(=O)Nc1ccccc1)NO` [Vorinostat (SAHA, MK0683), Vorinostat], the “Non Amp - AMP (POC) 10 uM” value was 37.32 POC.

Same assay, conditions: 10 uM, 48 hrs; average relative cell viability (vs 1% DMSO) of non-amplified cells (OVSAHO, CAOV3) minus that of MYC-HSF1 amplified cells (OVCAR8, OVCAR4); positive = greater response in amplified cells; dihydrochloride, 10 µM
With `C[C@]1(c2nc3c(C(N)=O)cccc3[nH]2)CCCN1` [Veliparib dihydrochloride] the “Non Amp - AMP (POC) 10 uM” value was −2.841 POC.

Same assay, conditions: 10 uM, 48 hrs; average relative cell viability (vs 1% DMSO) of non-amplified cells (OVSAHO, CAOV3) minus that of MYC-HSF1 amplified cells (OVCAR8, OVCAR4); positive = greater response in amplified cells; listed as SAHA, 10 µM
With `O=C(CCCCCCC(=O)Nc1ccccc1)NO` [Vorinostat (SAHA, MK0683), Vorinostat] the “Non Amp - AMP (POC) 10 uM” value was 44.79 POC.

Same assay, conditions: 10 uM, 48 hrs; average relative cell viability (vs 1% DMSO) of non-amplified cells (OVSAHO, CAOV3) minus that of MYC-HSF1 amplified cells (OVCAR8, OVCAR4); positive = greater response in amplified cells; listed as Trichostatin A (TSA), 10 µM
In the case of `CC(/C=C/C(=O)NO)=C\[C@@H](C)C(=O)c1ccc(N(C)C)cc1` [Trichostatin A], the “Non Amp - AMP (POC) 10 uM” value is reported as 28.28 POC.

Same assay, conditions: 10 uM, 48 hrs; average relative cell viability (vs 1% DMSO) of non-amplified cells (OVSAHO, CAOV3) minus that of MYC-HSF1 amplified cells (OVCAR8, OVCAR4); positive = greater response in amplified cells; listed as UF 010, 10 µM
`CCCCNNC(=O)c1ccc(Br)cc1` [UF010] was tested, and the “Non Amp - AMP (POC) 10 uM” value was 21.86 POC.

Same assay, conditions: 10 uM, 48 hrs; average relative cell viability (vs 1% DMSO) of non-amplified cells (OVSAHO, CAOV3) minus that of MYC-HSF1 amplified cells (OVCAR8, OVCAR4); positive = greater response in amplified cells; listed as UNC 0224, 10 µM
In the case of `COc1cc2c(NC3CCN(C)CC3)nc(N3CCCN(C)CC3)nc2cc1OCCCN(C)C` [UNC0224], the “Non Amp - AMP (POC) 10 uM” value is reported as −1.296 POC.

Same assay, conditions: listed as UNC0642, 10 µM
In the case of `COc1cc2c(NC3CCN(C(C)C)CC3)nc(N3CCC(F)(F)CC3)nc2cc1OCCCN1CCCC1` [UNC 0642], the “Non Amp - AMP (POC) 10 uM” value is reported as −5.587 POC.
